The target of this experiment is T1, human zDHHC15 (Homo sapiens, UniProt Q96MV8).
T1 construct: expressed in transfected cells; host or cells: HEK293T
T1 sequence (Q96MV8 1-337): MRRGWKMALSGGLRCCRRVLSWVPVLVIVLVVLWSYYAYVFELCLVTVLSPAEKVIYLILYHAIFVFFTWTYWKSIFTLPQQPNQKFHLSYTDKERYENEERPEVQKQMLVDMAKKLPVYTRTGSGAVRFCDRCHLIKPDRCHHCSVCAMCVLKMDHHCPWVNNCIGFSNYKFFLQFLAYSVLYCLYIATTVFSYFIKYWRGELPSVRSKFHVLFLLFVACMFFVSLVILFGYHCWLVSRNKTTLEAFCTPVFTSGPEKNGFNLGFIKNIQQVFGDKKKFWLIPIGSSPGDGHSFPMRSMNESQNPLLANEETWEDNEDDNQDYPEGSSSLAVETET
The experiment can be described thus: PSD95-mCHERRY S-acylation in HEK293T cells co-expressing zDHHC15. It is filed as cell-based. The note with it: 25 μM. An excerpt:
PSD95 (postsynaptic density protein 95) is a major S-acylated protein that has a critical role in the maturation of excitatory neurons and in synaptic plasticity ([46], [47]). PSD95 can be S-acylated by zDHHC2, zDHHC3, zDHHC7, and zDHHC15 ([6]). […] We therefore tested the effects of TTZ-1 and TTZ-2 on the S-acylation of PSD95 mediated by zDHHC2, zDHHC3, zDHHC7, and zDHHC15. […] In contrast, zDHHC3 and zDHHC7 activities toward PSD95 were unaffected by TTZ-1 and TTZ-2, mirroring the data obtained with GFP-SNAP25 as a substrate.
Figure 9 Activity of TTZ-1 and TTZ-2 against PSD95 S-acylation mediated by human zDHHC2, zDHHC3, zDHHC7, and zDHHC15 expressed in mammalian cells. HEK293T cells were transfected with a plasmid encoding PSD95-mCHERRY together with either a control plasmid pEF-BOS-HA (pEF) or a plasmid encoding either HA-tagged human zDHHC2 (zD2), zDHHC3 (zD3), zDHHC7 (zD7), or zDHHC15 (zD15) for 24 h. Cells were then preincubated for 4 h with TTZ-1 or TTZ-2 (25 μM final) or DMSO control before metabolic labeling with 100 μM C16:0-azide for 4 h. Cells were lysed, and proteins having incorporated C16:0-azide were labeled by click chemistry with an alkyne-IR800 dye. […] The data were quantified, and the graphs below each set of membranes show mean ± SEM of normalized S-acylation of PSD95-mCHERRY (click signal/RFP signal). […]

With `CCCCCCCOc1ccc(C(=O)Nc2cccc3c2OC(c2nnn[nH]2)CN3)cc1` (centres unmarked) [TTZ-1, N-(2-(1H-Tetrazol-5-yl)-3,4-dihydro-2H-benzo[b][1,4]oxazin-8-yl)-4-(heptyloxy)benzamide], the “PSD95-mCHERRY S-acylation by zDHHC15” value is “significantly inhibited”.

Regarding `O=C(Nc1cccc2c1OC(c1nnn[nH]1)CN2)c1ccc(OCCCCc2ccccc2)cc1` (centres unmarked) [TTZ-2, N-(2-(1H-Tetrazol-5-yl)-3,4-dihydro-2H-benzo[b][1,4]oxazin-8-yl)-4-(4-phenylbutoxy)benzamide], the “PSD95-mCHERRY S-acylation by zDHHC15” value is reported as “significantly inhibited”.

The record behind these values is article PMC9558053, “Development of a novel high-throughput screen for the identification of new inhibitors of protein S-acylation” (The Journal of Biological Chemistry, 2022).
